Measured values reported in patent US6596289B1, “Anti-cellulite pantyhose” (priority 1998, dated 2003).

Assay: Extraction and measurement of candidate molecules from loaded pantyhose in buffer
Type: physicochemical
Conditions: for bonding to the fabric: conclusion from data of Table I; for Micrograms per/cm^2 @ 2 hr (amount extracted) / Micrograms per/cm @ 4 hr (amount extracted): swatch of treated fabric immersed in buffer solution; for Micrograms per/cm @ 4 hr (amount extracted): four hours
Procedure: Step 1: Determining UV Max Absorbance nm of Test Substances
Prepare 0.2% aqueous solutions of the substance to be tested, and run a UV/VIS scan on a scanning spectrophotometer. Note the peak absorbance level of the scan. The wave length at which this occurs is the UV Max value for that candidate.
Step 2: Running Standard Curves of Candidate Molecules
Prepare standards of the test substances at the following concentrations: 400 uM, 200 uM, 100 uM, 50 uM and 25 uM. Read at the appropriate wavelength. Plot the absorbance readings vs candidate concentration to check linearity.
Step 3: Loading Pantyhose with Candidate Molecules a. Wash pantyhose two times with water. b. Treat pantyhose with 1% solution of polyethylenimine (PEI) with constant agitation for 30 minutes. c. Wash pantyhose with water. d. Treat pantyhose with 0.2% of the test substance with constant agitation for three hours. e. Wash pantyhose and allow to dry.
Step 4: Extraction and Measurement of Candidate Molecules from Pantyhose Six sections were removed from each pair of hose, two sections from each of the foot, calf and thigh. A two piece, interlocking circular template was used. This template provided a way to obtain consistent sample size and also held the hose sections in position for sample extraction. Each template containing the pantyhose section was placed in 10 ml of buffer for 4 hours. An untreated pair of pantyhose was used as the blank and tested the same as the samples. At the end of two hours, and again at 4 hours, the buffer solution was read at the appropriate wave length using a quartz curette. Results were calculated from the standard curve and reported in micrograms/square centimeter (ug/cm^2).

| SMILES | bonding to the fabric | Micrograms per/cm^2 @ 2 hr (amount extracted) | Micrograms per/cm @ 4 hr (amount extracted) |
| --- | --- | --- | --- |
| O=C(O)CCCC[C@@H]1CCSS1 (racemic) [Lipoic Acid, lipoic acid] | bind in adequate degrees | 1.2 Micrograms per/cm^2 | 1.5 Micrograms per/cm |
| O=C1O[C@H]([C@@H](O)CO)C(O)=C1O [Ascorbic Acid, ascorbic acid] | bind in adequate degrees | 0.6 Micrograms per/cm^2 | 0.7 Micrograms per/cm |
| O=c1c(-c2ccc(O)cc2)coc2cc(O)cc(O)c12 [Genistein, 4′,5,7-trihydroxyisoflavone] | most strongly bonded | 15.0 Micrograms per/cm^2 | 15.1 Micrograms per/cm |
